The values below come from BindingDB's records for doi:10.7270/Q2KP80J0 (The Scripps Research Institute Molecular Screening Center, 2007).

In this assay the target is T1, Ephrin type-B receptor 4 (Homo sapiens, UniProt P54760).
T1 sequence (P54760 whole entry): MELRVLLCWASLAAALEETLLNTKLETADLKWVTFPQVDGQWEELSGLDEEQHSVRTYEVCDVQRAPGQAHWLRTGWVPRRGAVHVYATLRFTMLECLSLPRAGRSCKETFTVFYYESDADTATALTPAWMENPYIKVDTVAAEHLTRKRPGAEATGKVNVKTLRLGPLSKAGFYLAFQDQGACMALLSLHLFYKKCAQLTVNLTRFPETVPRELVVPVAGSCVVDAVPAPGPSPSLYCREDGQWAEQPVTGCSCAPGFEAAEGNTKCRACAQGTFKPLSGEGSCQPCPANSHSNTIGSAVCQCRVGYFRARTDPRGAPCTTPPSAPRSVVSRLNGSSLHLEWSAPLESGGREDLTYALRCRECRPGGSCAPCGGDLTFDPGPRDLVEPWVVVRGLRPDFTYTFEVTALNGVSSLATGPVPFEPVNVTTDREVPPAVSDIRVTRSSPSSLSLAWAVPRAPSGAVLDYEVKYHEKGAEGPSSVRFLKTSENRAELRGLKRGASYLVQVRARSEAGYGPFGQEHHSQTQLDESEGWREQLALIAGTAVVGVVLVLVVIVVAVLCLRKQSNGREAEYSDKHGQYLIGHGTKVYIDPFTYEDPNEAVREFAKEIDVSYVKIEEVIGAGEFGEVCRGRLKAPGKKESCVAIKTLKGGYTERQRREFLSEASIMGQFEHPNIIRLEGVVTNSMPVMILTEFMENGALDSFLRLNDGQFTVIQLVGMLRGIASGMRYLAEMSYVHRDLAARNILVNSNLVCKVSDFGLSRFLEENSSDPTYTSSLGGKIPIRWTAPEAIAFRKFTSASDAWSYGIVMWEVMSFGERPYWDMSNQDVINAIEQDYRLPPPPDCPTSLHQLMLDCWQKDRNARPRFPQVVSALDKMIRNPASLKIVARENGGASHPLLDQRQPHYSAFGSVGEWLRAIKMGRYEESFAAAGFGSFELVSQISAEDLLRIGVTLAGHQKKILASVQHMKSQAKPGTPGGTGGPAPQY
Nature of the assay: EphB4-ephrin-B2 interaction antagonists, dose response, biochemical, TNYL-RAW peptide displacement (AID 835).
`Cc1cc(C)n2nc(SC3CCCCN(C(=O)c4ccc(F)cc4)C3=O)nc2n1` (centres undefined) [3-[(5,7-dimethyl-[1,2,4]triazolo[1,5-a]pyrimidin-2-yl)sulfanyl]-1-(4-fluorobenzoyl)azepan-2-one] yielded an IC50 of more than 79.4 µM.
The same measure for `Cc1[nH]c2ccccc2c1/C=C1\N=C(c2ccc(C(F)(F)F)cc2)OC1=O` [SMR000152363]: more than 79.4 µM.
The same measure for `CCCOC(=O)C(C)n1cnc2sc(C)c(C)c2c1=O` (centres undefined) [2-(4-keto-5,6-dimethyl-thieno[2,3-d]pyrimidin-3-yl)propionic acid propyl ester]: more than 79.4 µM.
Turning to `CC(C)CC(=O)NC(=S)NCCc1ccccc1` [3-methyl-N-(2-phenylethylcarbamothioyl)butanamide], the IC50 is more than 79.4 µM.
Next, `COc1ccc(C(=O)NN=C2SCC(=O)N2Cc2ccc3c(c2)OCO3)cc1OC` [3,4-Dimethoxy-benzoic acid (3-benzo[1,3]dioxol-5-ylmethyl-4-oxo-thiazolidin-2-ylidene)-hydrazide]: more than 79.4 µM.
The same measure for `CCN1C(=O)C(=CNc2ccc(N3CCOCC3)cc2)C(=O)N(CC)C1=S`: more than 79.4 µM; for `C=CCn1c(NCCc2ccccc2)nc2c1c(=O)n(C)c(=O)n2C` [1,3-dimethyl-8-(2-phenylethylamino)-7-prop-2-enyl-purine-2,6-dione]: more than 79.4 µM.
The same measure for `O=C(NN=C1C(=O)c2cccc3cccc1c23)c1ccc(Cl)cc1` [4-chloranyl-N-[(2-oxidanylideneacenaphthylen-1-ylidene)amino]benzamide]: 17.8 µM.
With `COCCn1c(C)cc(C(=O)COc2nc3ccccc3nc2C)c1C` [1-[1-(2-methoxyethyl)-2,5-dimethyl-3-pyrrolyl]-2-[(3-methyl-2-quinoxalinyl)oxy]ethanone], the IC50 was more than 79.4 µM.
Next, `O=C(CSc1nnc(-c2ccccn2)n1Cc1ccccc1)NC1CCCC1` [2-(4-Benzyl-5-pyridin-2-yl-4H-[1,2,4]triazol-3-ylsulfanyl)-N-cyclopentyl-acetamide]: more than 79.4 µM; `Cc1onc(-c2ccccc2)c1C(=O)Nc1ccc(S(=O)(=O)NC2=NCCCCC2)cc1` [5-methyl-3-phenyl-N-[4-(3,4,5,6-tetrahydro-2H-azepin-7-ylsulfamoyl)phenyl]-1,2-oxazole-4-carboxamide]: more than 79.4 µM.
The same measure for `Cn1cc(Cl)c(C(=O)OCC(=O)Nc2ccccc2)n1` [(2-anilino-2-oxoethyl) 4-chloro-1-methylpyrazole-3-carboxylate]: more than 79.4 µM; for `Cc1c2cc(O)c(=O)cc-2oc2cc(O)c(O)cc12` [2,6,7-Trihydroxy-9-methyl-xanthen-3-one]: 3.6 µM.
As to `Cn1c(=O)c(NCCc2ccccc2)c2c3c(cccc31)C(=O)c1ccccc1-2` [3-Methyl-1-phenethylamino-3H-naphtho[1,2,3-de]quinoline-2,7-dione], the IC50 came out at 1 µM.
The same measure for `CCC1CCCCN1C(=O)Nc1cccc(NC(=O)N2CCCCC2CC)c1` (centres undefined) [2-ethyl-N-[3-[(2-ethylpiperidin-1-yl)carbonylamino]phenyl]piperidine-1-carboxamide]: more than 79.4 µM; for `CN(c1ccccc1C(=O)Nc1ccccc1C(=O)NCc1ccco1)S(C)(=O)=O` [MLS000049900]: more than 79.4 µM; for `O=C(O)CCC(=O)N1CCN(c2nc(-c3ccccc3Cl)c3cc(Br)ccc3n2)CC1` [4-[4-[6-bromanyl-4-(2-chlorophenyl)quinazolin-2-yl]piperazin-1-yl]-4-oxidanylidene-butanoic acid]: more than 79.4 µM.
The same measure for `COc1cccc(OC)c1-c1nn2c(-c3cc(-c4ccccc4)n[nH]3)nnc2s1` [MLS000083027]: more than 79.4 µM; for `O=C(Nc1nc2n(n1)C(c1ccc(Cl)cc1)CC(c1ccc(Cl)cc1)N2)c1ccco1` (centres undefined) [SMR000045014]: more than 79.4 µM.
The same measure for `CC(C)CCn1c(SCCN2CCOCC2)nc2c1c(=O)[nH]c(=O)n2C`: more than 79.4 µM; for `O=C1CCCc2c1[nH]c1ccccc21`: more than 79.4 µM; for `CN1C(=O)S/C(=C/c2cccnc2)C1=O` [(5E)-3-methyl-5-(3-pyridinylmethylidene)thiazolidine-2,4-dione]: more than 79.4 µM.
`CCCCNC(=O)C1C2C=CC3(CN(Cc4ccccc4Cl)C(=O)C13)O2` (centres undefined) [MLS000044497]: the IC50 is more than 79.4 µM.
The same measure for `O=C(O)/C(=C\c1ccco1)NC(=O)c1cccc2ccccc12` [(E)-3-(furan-2-yl)-2-(naphthalene-1-carbonylamino)prop-2-enoic acid]: more than 79.4 µM.
Next, `Cc1c(NC(=O)COC(=O)C(c2ccc(Cl)cc2)C(C)C)c(=O)n(-c2ccccc2)n1C` (centres undefined) [2-(4-chlorophenyl)-3-methyl-butyric acid [2-keto-2-[(3-keto-1,5-dimethyl-2-phenyl-3-pyrazolin-4-yl)amino]ethyl] ester]: more than 79.4 µM; `CC(=O)Nc1ccc(OCC=C(Cl)Cl)cc1` [MLS000107919]: more than 79.4 µM.
The same measure for `Cn1cc(S(=O)(=O)N2CCN(c3ccccc3)CC2)c(=O)n(C)c1=O` [1,3-dimethyl-5-(4-phenylpiperazin-1-yl)sulfonyl-pyrimidine-2,4-dione]: more than 79.4 µM; for `O=C(NC(Cc1ccccc1)c1nc2ccccc2[nH]1)C1CC(=O)N(c2ccc3c(c2)OCCO3)C1` (centres undefined) [MLS000053466]: more than 79.4 µM.
Molecule `COC(=O)c1ccc(COc2ccc3c(C)c(C)c(=O)oc3c2C)o1` [5-[(2-keto-3,4,8-trimethyl-chromen-7-yl)oxymethyl]furan-2-carboxylic acid methyl ester] showed an IC50 of more than 79.4 µM.
The same measure for `Cc1ccc(Nc2cnn(C34CC5CC(CC(CC(=O)O)(C5)C3)C4)c(=O)c2Cl)cc1` [2-[3-[5-chloro-4-(4-methylanilino)-6-oxo-1-pyridazinyl]-1-adamantyl]acetic acid]: more than 79.4 µM; for `O=C(COC(=O)C(Cc1ccccc1)NC(=O)c1ccco1)NC1CC1` (centres undefined) [2-(2-furoylamino)-3-phenyl-propionic acid [2-(cyclopropylamino)-2-keto-ethyl] ester]: more than 79.4 µM.
Next, `CCOC(=O)c1ccc(NC(=S)NCC(O)c2ccccc2)cc1` (centres undefined) [4-[(2-hydroxy-2-phenyl-ethyl)thiocarbamoylamino]benzoic acid ethyl ester]: more than 79.4 µM; `CC1=C(C(=O)N2CCC3(CC2)OCCO3)C2(CCC(C)CC2)OC1=O` (centres undefined) [4-(1,4-dioxa-8-azaspiro[4.5]dec-8-ylcarbonyl)-3,8-dimethyl-1-oxaspiro[4.5]dec-3-en-2-one]: more than 79.4 µM.
`CN(C(=O)N1CCN(c2ccccn2)CC1)c1ccccc1` [MLS000534907] showed an IC50 of more than 79.4 µM.
The same measure for `COC(=O)c1ccc(NC(=O)CN2CCN(c3cccc(Cl)c3)CC2)cc1` [4-[[2-[4-(3-chlorophenyl)-1-piperazinyl]-1-oxoethyl]amino]benzoic acid methyl ester]: more than 79.4 µM; for `CCOC(=O)c1sc2nc(C)c3c(c2c1N)CC(C)(C)OC3` [1-Amino-5,8,8-trimethyl-8,9-dihydro-6H-7-oxa-3-thia-4-aza-cyclopenta[a]naphthalene-2-carboxylic acid ethyl ester]: more than 79.4 µM; for `CC(C)(C)C1CCC2(CC1)SCC(=O)N2c1ccccc1` (centres undefined): more than 79.4 µM.
Next, `CN(C)c1nc2n(c(=O)n1)CCO2` [2-(dimethylamino)-6,7-dihydro-[1,3]oxazolo[3,2-a][1,3,5]triazin-4-one]: more than 79.4 µM; `Cn1cnnc1SCC(=O)Nc1ccc2nc(SCc3cccc4ccccc34)sc2c1` [2-[(4-methyl-1,2,4-triazol-3-yl)sulfanyl]-N-[2-(naphthalen-1-ylmethylsulfanyl)-1,3-benzothiazol-6-yl]acetamide]: more than 79.4 µM.
Next, `CCOC(=O)c1oc2cccc(O)c2c1CN(Cc1ccccc1)C(C)=O` [3-[[acetyl(benzyl)amino]methyl]-4-hydroxy-coumarilic acid ethyl ester]: more than 79.4 µM.
As to `O=C1Nc2ccccc2/C1=N/Nc1nc2ccccc2s1` [SMR000123161], the IC50 is more than 79.4 µM.
Next, `CCOc1ccc(NC(=O)C(C)Oc2ccccc2C(=O)Nc2ccc(C)c(Cl)c2)cc1` (centres undefined) [MLS000581136]: more than 79.4 µM.
`CCCc1[nH]nc2c1C(c1ccc(OC)c(Cn3nnc4ccccc43)c1)C(C#N)C(=N)O2` (centres undefined) registered an IC50 of more than 79.4 µM.
Next, `N#Cc1ncc(C(F)(F)F)cc1Sc1ccc(N)cc1` [3-(4-aminophenyl)sulfanyl-5-(trifluoromethyl)pyridine-2-carbonitrile]: more than 79.4 µM.

The IC50 is the concentration needed to halve the response being measured.
